Experimental data published in patent publication US20140357487A1, “PLANTS HAVING INCREASED TOLERANCE TO HERBICIDES” (BASF SE, priority 2011, published 2014).

Experiments:
Avena HPPD = experiment: HPPD activity assay, Avena HPPD; assay type: biochemical, Avena sativa; conditions: normalized on Arabidopsis wild-type HPPD
Experimental: (§1) HPPD produces homogentisic acid and CO2 from 4-hydroxyphenylpyruvate (4-HPP) and O2. The activity assay for HPPD is based on the analysis of homogentisic acid by reversed phase HPLC.
(§2) The assay mixture can contain 150 mM potassium phosphate buffer pH 7.0, 50 mM L-ascorbic acid, 1 μM FeSO4 and 7 μg of purified enzyme in a total volume of 1 ml.
(§3) Inhibitors are dissolved in DMSO (dimethylsulfoxide) to a concentration of 20 mM or 0.5 mM, respectively. From this stock solution serial five-fold dilutions are prepared in DMSO, which are used in the assay. The respective inhibitor solution accounts for 1% of the assay volume. Thus, final inhibitor concentrations range from 200 μM to 2.5 nM or from 5 μM to 63 pM, respectively. After a preincubation of 30 min the reaction is started by adding 4-HPP to a final concentration of 0.1 mM. The reaction is allowed to proceed for 120 min at room temperature. The reaction is stopped by addition of 100 μl of 4.5 M phosphoric acid.
(§4) Activities are normalized by setting the uninhibited enzyme activity to 100%. IC50 values are calculated using non-linear regression.
(§5) The assay mixture can contain 150 mM potassium phosphate buffer pH 7.0, 50 mM L-ascorbic acid, 100 μM Catalase (Sigma-Aldrich), 1 μM FeSO4 and 0.2 units of purified HPPD enzyme in a total volume of 505 μl. 1 unit is defined as the amount of enzyme that is required to produce 1 nmol of HGA per minute at 20° C.
(§6) Inhibitors are dissolved in DMSO (dimethylsulfoxide) to a concentration of 0.5 mM. From this stock solution serial five-fold dilutions are prepared in DMSO, which are used in the assay. The respective inhibitor solution accounts for 1% of the assay volume. Thus, final inhibitor concentrations range from 5 μM to 320 pM, respectively. Activities are normalized by setting the uninhibited enzyme activity to 100%. IC50 values are calculated using non-linear regression.
(§7) Using methods which are described in the above examples or well known in the art, purified, recombinant wildtype HPPD enzymes are characterized with respect to their kinetic properties and sensitivity towards HPPD inhibiting herbicides. Apparent michaelis constants (Km) and maximal reaction velocities (Vmax) are calculated by non-linear regression with the software GraphPad Prism 5 (GraphPad Software, La Jolla, USA) using a substrate inhibition model. […] Weighted means (by standard error) of Km and […] values are calculated from at least three independent experiments. […]
(§8) Field performance of the HPPD enzyme, which is used as a herbicide tolerance trait, may depend not only on its lack of sensitivity towards HPPD inhibiting herbicides but also on its activity. To assess the potential performance of a herbicide tolerance trait a tolerance index (TI) is calculated using the following formula: […]

Sorghum HPPD = experiment: HPPD activity assay, Sorghum HPPD; assay type: biochemical; conditions: normalized on Arabidopsis wild-type HPPD
Experimental: as §1, §2, §3, §4
(§9) The assay mixture can contain 150 mM potassium phosphate buffer pH 7.0, 50 mM L-ascorbic acid, 100 μM Catalase (Sigma-Aldrich), 1 μM FeSO4 and 0.2 units of purified HPPD enzyme in a total volume of 505 μl. […]
(§10) Inhibitors are dissolved in DMSO (dimethylsulfoxide) to a concentration of 0.5 mM. […] IC50 values are calculated using non-linear regression.
as §7

Chlamydomonas HPPD1 = experiment: HPPD activity assay, Chlamydomonas HPPD1; assay type: biochemical, Chlamydomonas reinhardtii; conditions: normalized on Arabidopsis wild-type HPPD
Experimental: as §1, §2, §3, §4, §9, §10, §7

[1] = target: T1, Arabidopsis HPPD (SEQ ID: 53) (Arabidopsis thaliana, UniProt P93836); experiment: HPPD activity assay, Arabidopsis wild-type HPPD; assay type: biochemical; design: key to Normalized tolerance index TI: tolerance index relative to Arabidopsis wild-type HPPD (= 1); conditions: for Normalized tolerance index TI: normalized on Arabidopsis wild-type HPPD
T1 construct: His6 (N); made in house; host or cells: E. coli BL21 (DE3)
T1 sequence (P93836 1-445): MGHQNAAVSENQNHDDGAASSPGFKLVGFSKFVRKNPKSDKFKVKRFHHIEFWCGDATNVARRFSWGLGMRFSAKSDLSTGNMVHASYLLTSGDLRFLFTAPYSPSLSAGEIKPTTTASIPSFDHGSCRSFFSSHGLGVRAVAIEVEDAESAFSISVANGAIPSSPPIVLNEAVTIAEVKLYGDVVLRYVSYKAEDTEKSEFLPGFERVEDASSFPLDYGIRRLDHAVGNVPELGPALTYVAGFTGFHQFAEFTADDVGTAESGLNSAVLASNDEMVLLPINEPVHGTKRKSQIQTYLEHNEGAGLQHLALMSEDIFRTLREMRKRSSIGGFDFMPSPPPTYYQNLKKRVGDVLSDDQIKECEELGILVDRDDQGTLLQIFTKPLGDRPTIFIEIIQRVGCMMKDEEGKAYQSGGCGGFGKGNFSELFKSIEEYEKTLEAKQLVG
Experimental: as §1, §2
as §3, with “Thus, final inhibitor concentrations range from 200 μM to 2.5 nM or from 5 μM to 63 pM, respectively.” left out
as §4, §5
as §6, with “Thus, final inhibitor concentrations range from 5 μM to 320 pM, respectively.” left out
(§11) Using methods which are described in the above examples or well known in the art, purified, recombinant wildtype HPPD enzymes are characterized with respect to their kinetic properties and sensitivity towards HPPD inhibiting herbicides. Apparent michaelis constants (Km) and maximal reaction velocities (Vmax) are calculated by non-linear regression with the software GraphPad Prism 5 (GraphPad Software, La Jolla, USA) using a substrate inhibition model.
as §8
Easy comparison and ranking of each trait is enabled by normalizing tolerance indexes on Arabidopsis wild-type HPPD.

Alopecurus HPPD = experiment: HPPD activity assay, Alopecurus HPPD; assay type: biochemical; conditions: normalized on Arabidopsis wild-type HPPD
Experimental: as §1, §2, §3, §4, §9, §10, §7

Lolium HPPD = experiment: HPPD activity assay, Lolium HPPD; assay type: biochemical; conditions: normalized on Arabidopsis wild-type HPPD
Experimental: as §1, §2, §3, §4, §5, §6, §7, §8

Poa HPPD = experiment: HPPD activity assay, Poa HPPD; assay type: biochemical; conditions: normalized on Arabidopsis wild-type HPPD
Experimental: as §1, §2, §3, §4, §9, §10, §7

[2] = target: T2, Arabidopsis HPPD variant M335H, P336A (Arabidopsis thaliana, UniProt P93836, M335H/P336A); experiment: HPPD activity assay, Arabidopsis HPPD mutant M335H, P336A; assay type: biochemical; conditions: normalized on Arabidopsis wild-type HPPD
T2 construct: PCR-based site directed mutagenesis of pEXP5-NT/TOPO®-AtHPPD is done; His6 (N); made in house; host or cells: E. coli BL21 (DE3)
T2 sequence (P93836 whole entry M335H/P336A): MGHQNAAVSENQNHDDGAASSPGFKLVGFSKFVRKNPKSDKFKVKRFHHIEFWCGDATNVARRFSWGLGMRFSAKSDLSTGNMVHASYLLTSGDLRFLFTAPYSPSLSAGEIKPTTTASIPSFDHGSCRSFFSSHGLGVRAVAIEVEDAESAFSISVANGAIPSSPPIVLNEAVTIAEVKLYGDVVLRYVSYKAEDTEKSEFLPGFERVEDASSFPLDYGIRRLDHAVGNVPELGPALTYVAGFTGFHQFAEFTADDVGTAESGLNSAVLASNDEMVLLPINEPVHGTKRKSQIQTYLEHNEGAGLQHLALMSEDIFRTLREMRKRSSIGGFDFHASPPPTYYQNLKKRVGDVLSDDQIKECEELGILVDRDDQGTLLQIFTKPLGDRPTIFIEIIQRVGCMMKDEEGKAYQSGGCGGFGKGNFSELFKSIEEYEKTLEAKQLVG
Experimental: as §1, §2
as §3, with “Thus, final inhibitor concentrations range from 200 μM to 2.5 nM or from 5 μM to 63 pM, respectively.” left out
as §4, §5
Inhibitors are dissolved in DMSO (dimethylsulfoxide) to a concentration of 0.5 mM. […] IC50 values are calculated using non-linear regression. […]
Purified, mutant HPPD enzymes are obtained by the methods described above. […] Apparent michaelis constants (Km) and maximal reaction velocities (Vmax) are calculated by non-linear regression with the software GraphPad Prism 5 (GraphPad Software, La Jolla, USA) using a substrate inhibition model.
as §8, with “of the optimized HPPD enzyme,” for “of the HPPD enzyme,”, “herbicide tolerance trait may depend” for “herbicide tolerance trait, may depend”

Hordeum HPPD (SEQ ID: 2) = target: T3, Hordeum HPPD (SEQ ID: 2) (Hordeum vulgare, UniProt O48604, A164G/R146V/R147D/R148G); experiment: HPPD activity assay, Hordeum wild-type HPPD; assay type: biochemical; conditions: Hordeum HPPD; substrate; read-out: michaelis constant Km (4-HPP)
T3 construct: His (N); made in house; host or cells: E. coli BL21 (DE3)
T3 sequence (O48604 whole entry R146V/R147D/R148G/A164G): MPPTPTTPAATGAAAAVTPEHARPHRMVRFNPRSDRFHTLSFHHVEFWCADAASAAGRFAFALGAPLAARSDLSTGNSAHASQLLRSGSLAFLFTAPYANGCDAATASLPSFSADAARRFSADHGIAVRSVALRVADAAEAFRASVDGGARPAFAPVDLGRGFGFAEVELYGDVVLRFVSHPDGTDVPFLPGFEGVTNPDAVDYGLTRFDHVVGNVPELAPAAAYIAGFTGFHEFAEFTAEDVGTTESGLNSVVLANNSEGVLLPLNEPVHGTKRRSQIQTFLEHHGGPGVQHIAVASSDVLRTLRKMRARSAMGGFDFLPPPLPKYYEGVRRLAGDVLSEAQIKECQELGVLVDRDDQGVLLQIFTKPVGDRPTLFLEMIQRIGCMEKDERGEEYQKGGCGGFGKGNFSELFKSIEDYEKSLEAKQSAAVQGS
Experimental: as §1, §2
as §3, with “Thus, final inhibitor concentrations range from 200 μM to 2.5 nM or from 5 μM to 63 pM, respectively.” left out
as §4, §5
as §6, with “Thus, final inhibitor concentrations range from 5 μM to 320 pM, respectively.” left out
as §11, §8

| Compound | Normalized tolerance index TI (Avena HPPD) | Normalized tolerance index TI (Sorghum HPPD) | Normalized tolerance index TI (Chlamydomonas HPPD1) | Normalized tolerance index TI ([1]; Arabidopsis HPPD Wildtype, Table 15) | Normalized tolerance index TI ([1]; Arabidopsis HPPD, Table 12) | Normalized tolerance index TI (Alopecurus HPPD) | Normalized tolerance index TI (Lolium HPPD) | Normalized tolerance index TI (Poa HPPD) | Normalized tolerance index TI [2] | Km ([1]; Arabidopsis HPPD, substrate, read-out: michaelis constant Km (4-HPP)) | Km (Hordeum HPPD (SEQ ID: 2)) |
| --- | --- | --- | --- | --- | --- | --- | --- | --- | --- | --- | --- |
| CC1CC(c2c(Cl)ccc(C3=C(O)c4ncccc4CS3(=O)=O)c2Cl)=NO1 (centres unmarked) [Inhibitor 4, 7-[2,4-dichloro-3-(5-methyl-4,5-dihydroisoxazol-3-yl)phenyl]-6,6-dioxo-5H-thiopyrano[4,3-b]pyridin-8-ol] | 5.3 | 3.7 | 1.3 | 1 | 1 | 3.5 | 4.5 | 1.2 | 7.4 | – | – |
| O=C(O)C(=O)Cc1ccc(O)cc1 [Inhibitor 4-HPP, 4-hydroxyphenylpyruvate, reference compound] | – | – | – | – | – | – | – | – | – | 13 µM | 26 µM |
